# Measurements reported in patent publication US7834152B2, “Antagonists of interleukin-15” (Beth Israel Deaconess Medical Center, Inc., priority 1996, dated 2010).
# Entries after “also recorded” stand apart in the source; their conditions may differ. Where two headings read alike, the source gives them in different places.
# Experiments:
# PHA-activated PBMCs = assay: Proliferative response to IL-2 or IL-15 of PBMCs pre-treated with immunosuppressive drugs and PHA; conditions: cells pre-treated with PHA and drug, washed, cultured with IL-2 2 days
# [1] = system: BAF-BO3 cells transfected with pRcCMV-IL-2Rβ; assay: [3H]-TdR proliferation assay, BAF-BO3 cells expressing human IL-2Rβ; format: cell-based, murine; conditions: for cell proliferation ([3H]-TdR incorporation): cells expressing wild-type human IL-2Rβ subunit
# Protocol: (§1) The BAF-BO3 cell line is an IL-3-dependent, murine pro-B cell line. A BAF-BO3 cell line that was pre-selected for high expression of the IL-2Rα subunit was kindly provided by T. Taniguchi (Osaka, Japan; Hatakeyama et al., Cell 59:837, 1989). BAF-BO3 cells were transfected with vector control (pRcCMV-0) or cDNA encoding the human IL-2Rβ subunit cloned into pRcCMV (pRcCMV-IL-2Rβ), by electroporation at 350 volts and 500 μFarads using 20 μg of ScaI linearized plasmid. Transfected cells were selected in the presence of 1 mg/ml G418 and tested for the expression of the IL-2Rβ subunit by fluorescence activated cell sorting (FACS) analysis as described (Maslinski et al., Int. Immunol. 4:509, 1992; Hataleyama et al., Cell 59:837, 1989).
# IL-3 dependent BAF-BO3 cells, which constitutively express the IL-2Rγ subunit, were transfected with a control pRcCMV construct (pRcCMV-0) or a pRcCMV construct containing cDNA encoding the full-length human IL-2Rβ_subunit and the neo^r gene (pRcCMV-IL-2Rβ). G418 resistant clones were then selected. Cells that were selected in this way were used to test the biological activity of FLAG-HMK-IL-15. […] Cells were washed twice to remove the medium containing the growth factor IL-3, and starved for 16 hours in RPMI-1640 medium supplemented with 10% FCS, penicillin (0.5 U/ml), and streptomycin (0.5 μg/ml). Cells were then plated at 2×10^4 cells/well, stimulated with FLAG-HMK-IL-15, and cultured for 72 hours at 37° C. in an atmosphere containing 5% CO2. This was followed by a 14 hour “pulse” with 1 μCi of [^3H]-TdR. The BAF-BO3 cells were then harvested and cell-associated radioactivity was measured by scintillation counting as described above.
# In order to study the effect of various IL-15 related proteins, including the mutant polypeptides described above, on the proliferation of BAF-BO3 cells, the following experiment was performed in vitro. BAF-BO3 cells were transfected in culture with DNA from either pRcCMV-IL-2Rβ or pRcCMV-0.
# IL-15Rα subunit = molecular target: T1, IL-15Rα subunit (Homo sapiens, UniProt Q13261); assay: Cross-linking of [32P]-FLAG-HMK-IL-15 to PHA-activated PBMCs (DSS, SDS-PAGE, autoradiography); format: binding
# T1 construct: endogenous in cells
# T1 sequence (Q13261 31-267): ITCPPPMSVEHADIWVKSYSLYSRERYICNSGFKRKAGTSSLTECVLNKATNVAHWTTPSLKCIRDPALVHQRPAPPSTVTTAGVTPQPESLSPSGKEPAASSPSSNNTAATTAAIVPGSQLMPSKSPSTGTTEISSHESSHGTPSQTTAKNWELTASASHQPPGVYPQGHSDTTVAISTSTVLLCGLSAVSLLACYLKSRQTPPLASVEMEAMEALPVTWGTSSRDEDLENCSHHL
# Protocol: After 72 hours in culture, PHA-activated PBMCs were washed twice in cold phosphate-buffered saline (PBS), and 10^7 cells/ml were incubated for 30 minutes at 4° C. in 400 μl of RMPI-1640 medium supplemented with 25 mM HEPES (pH 7.4), 10% FCS, penicillin (0.5 U/ml), and streptomycin (0.5 μg/ml). Supplemented RPMI-1640 medium (20 μl) containing 1 μg of recombinant human IL-15 as a control for non-specific binding or medium alone was then added, and the incubation was continued for 15 minutes before 20 μl of medium containing [^32P]-labeled FLAG-HMK-IL-15 (1 ng, 500,000 cpm) was added to each sample. After further incubation for 1 hour at 4° C., the cells were washed with PBS and resuspended in 250 μl of PBS. Disuccinimidyl suberate (DDS; 1 mM), a cross-linker, was added, and cross-linking was performed as described by Tsudo et al. (Proc. Natl. Acad. Sci. USA 83:9694, 1986). The cross-linked cells were collected by centrifugation, washed, solubilized with extraction buffer (2% Nonidet P-40, 0.14 M NaCl, 25 mM HEPES (pH 7.4), 1 mM phenyl-methylsulfonyl fluoride) and centrifuged. Proteins present in the supernatants of these cell lysates were separated by 8% SDS-PAGE under reducing conditions. An autoradiogram was developed from the dry gel after exposure at −70° C. overnight. […]
# [2] = system: PHA-activated human PBMCs; assay: [3H]-TdR proliferation assay, PHA-activated human PBMCs; format: cell-based; conditions: PHA-activated PBMCs re-stimulated with reagent
# Protocol: Peripheral blood mononuclear cells (1×10^6/ml) were stimulated with PHA (2 μg/ml) for 72 hours at 37° C. in RPMI-1640 medium supplemented with 10% FCS, penicillin, and streptomycin, as described above.
# In the next series of experiments, the FLAG-HMK-IL-15 fusion protein was tested in order to determine whether it could function as a biologically active growth factor.
# [3] = system: BAF-BO3 cells transfected with pRcCMV-0; assay: [3H]-TdR proliferation assay, BAF-BO3 vector control cells; format: cell-based, murine; conditions: vector lacking IL-2Rβ chain sequences
# Protocol: as §1
# IL-3 dependent BAF-BO3 cells, which constitutively express the IL-2Rγ subunit, were transfected with a control pRcCMV construct (pRcCMV-0) or a pRcCMV construct containing cDNA encoding the full-length human IL-2Rβ_subunit and the neo^r gene (pRcCMV-IL-2Rβ). G418 resistant clones were then selected. Cells that were selected in this way were used to test the biological activity of FLAG-HMK-IL-15. […] The BAF-BO3 cells were then harvested and cell-associated radioactivity was measured by scintillation counting as described above. […]
# [4] = system: leukemia cells (MOLT-14, YT, HuT-102, 2A, 2B); assay: Flow cytometry staining of leukemic cell lines with FLAG-HMK-IL-15; format: binding
# Protocol: The cells treated were from the leukemic cell lines MOLT-14, YT, HuT-102, and from cell lines currently being established at Beth Israel Hospital (Boston, Mass.), and designated 2A and 2B. The cultured cells were washed and incubated with either medium alone (tracing alone) or with medium containing the FLAG-HMK-IL-15 polypeptide (tracing filled in). The cells were then incubated with the biotinylated anti-FLAG antibody and stained with RED670-conjugated streptavidin. The stained cells were analyzed by flow cytometry.
# The cells treated were obtained from the leukemic cell lines MOLT-14, YT, HuT-102, and from cell lines currently being established at Beth Israel Hospital (Boston, Mass.), and named 2A and 2B. The cultured cells were washed and incubated with either medium alone or with medium containing the FLAG-HMK-IL-15 wild-type polypeptide (FIG. 18). The cells were then incubated with the biotinylated anti-FLAG antibody and stained with RED670-conjugated streptavidin. The stained cells were analyzed by flow cytometry.
# [5] = system: IL-2Rαγ+ BAF-BO3 cells that express mutant S− IL-2Rβ subunit; assay: Proliferation assay, BAF-BO3 cells expressing mutant S− IL-2Rβ subunit; format: cell-based, murine; conditions: IL-2Rβ lacking serine-rich region (S−), 38 hours
# Text: Error bars indicate the mean±standard deviation.
# Therefore, the ability of IL-15 to induce the proliferation of IL-2Rαγ^+BAF-BO3 cells that express either the wild-type IL-2Rβ subunit or a mutant IL-2Rβ protein that lacks the serine rich region (S^−).
# [6] = system: IL-15 binding sites on PHA-activated human PBMCs; assay: Flow cytometry staining of PHA-activated PBMCs (anti-FLAG biotinylated Ab, streptavidin-RED670)
# Protocol: Resting or PHA-activated PBMCs (3×10^5 cells/tube) were washed twice with ice-cold PBS/0.02% sodium azide and incubated in medium containing FLAG-HMK-IL-15 (0.1 μg/100 μl) or, as a control, in medium alone. The incubation was carried out on ice for 30 minutes. The cells were then washed with PBS and incubated for two sequential 30 minute periods at 4° C. with biotin-conjugated anti-FLAG monoclonal antibody (0.5 μg/100 μl) and streptavidin-RED670 (0.5 μg/100 μl). The cells were then counterstained with CD25-PE, CD14-PE, CD16-PE, CD122-PE, CD4-FITC, or CD8-FITC, as indicated. […] Cell surface phenotype was analyzed using FACScan (Becton/Dickinson, Calif.) and Cell Quest software.
# The FLAG-HMK-IL-15 fusion protein, biotinylated anti-FLAG antibody, and streptavidin-RED670 were employed to detect expression of IL-15 binding sites on human PBMCs by cytofluorometric analysis. […] The stained cells were analyzed by flow cytometry (FIG. 4A). […] Both activated CD4^+ and CD8^+ cells express IL-15α chains (FIG. 4C); Activation induced IL-15α chains were also detected on CD14^+ (monocyte/macrophage) cells and CD16^+ (natural killer) cells.
# PHA-activated PBMCs were washed and incubated with medium alone, or with the FLAG-HMK-IL-15 double mutant. […] The stained cells were analyzed by flow cytometry (FIG. 17).
molecule,measurement,setting,value
C[C@@H]1C[C@H]2[C@@H]3CCC4=CC(=O)C=C[C@]4(C)[C@@]3(F)[C@@H](O)C[C@]2(C)[C@@]1(O)C(=O)CO [dexamethasone],proliferative response to IL-2,PHA-activated PBMCs,not inhibited
O=c1c(-c2ccc(O)cc2)coc2cc(O)cc(O)c12 [genistein],cell viability,"human PBMCs; genistein 10 μg/ml, 3 days of incubation",659±15 % of the control
CO[C@H]1C[C@@H]2CC[C@@H](C)[C@@](O)(O2)C(=O)C(=O)N2CCCC[C@H]2C(=O)O[C@H]([C@H](C)C[C@@H]2CC[C@@H](O)[C@H](OC)C2)CC(=O)[C@H](C)/C=C(\C)[C@@H](O)[C@@H](OC)C(=O)[C@H](C)C[C@H](C)/C=C/C=C/C=C/1C [rapamycin],cell viability,"human PBMCs; human, 3 days, 10 ng/ml",8.5%±10%
"FLAG-HMK-IL-15 Q149D single mutant: IL-15 single mutant, glutamine at position 149 changed to aspartate, FLAG-HMK tagged",cell proliferation ([3H]-TdR incorporation),[1],stimulated cellular proliferation
FLAG-HMK-IL-15: IL-15 polypeptide having an N-terminus covalently bound to the 18 amino acid FLAG-HMK-sequence,binding to the IL-15Rα subunit on mitogen-activated PBMCs,"IL-15Rα subunit; [32P]-labeled protein, DSS cross-linking, 4° C.",site specific binding
same,cell proliferation ([3H]-TdR incorporation),[2],proliferate in response to
same,cell proliferation ([3H]-TdR incorporation),[1],stimulates proliferation; also recorded: stimulated cellular proliferation
same,cell proliferation ([3H]-TdR incorporation),[3],"does not, however, stimulate the proliferation"
same,binding to leukemia cells,[4],bind leukemia cells
IL-15: recombinant human IL-15 obtained from PeproTech,competition of [32P]-FLAG-HMK-IL-15 cross-linked band,IL-15Rα subunit; molar excess of competitor,failed to detect
same,cell proliferation ([3H]-TdR incorporation),[1],stimulate the proliferation; also recorded: stimulated cellular proliferation
same,cell proliferation,[5],neither cytokine is able to stimulate
same,blocking of FLAG-HMK-IL-15 binding to PHA activated PBMCs,[6]; molar excess of competitor,blocked
"double mutant IL-15: human IL-15 protein bearing a double mutation (Q149D; Q156D), FLAG-HMK tagged",inhibition of BAF-BO3 proliferation,"[1]; IL-15 + double mutant, 30 μl (approximately 50 μg/ml) versus 20 μL of the same concentration",inhibited proliferation more completely
same,cell proliferation ([3H]-TdR incorporation),[1],did not proliferate
same,binding to PHA-activated human PBMCs,[6]; flow cytometry,bind PHA-activated human PBMCs
